Here are results for five compounds from ChEMBL document CHEMBL1201862, “PubChem BioAssay data set” (2004).

A short description of test [1]: IC50 of Artemis nuclease activity blockers – biochemical, fluorescence intensity, dose response (AID 720701).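 Note: Artemis endonuclease enzyme.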 It counts as functional.
Test [2] is described as follows: Trypanosoma cruzi growth suppression in host cells – NIH3T3 host cells, beta-gal luminescence, confirmation (AID 2044).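 Note: intracellular parasites grown in NIH/3T3 mouse fibroblasts as host cells; luminescent beta-galactosidase reporter signal from transgenic T. cruzi replicating inside host cells; inhibitors lower the luminescence signal.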 It counts as functional, cell-based.
The nature of test [3]: NIH3T3 cell viability loss – ATP luminescence, mouse fibroblasts, counter-screen, dose response (AID 2010).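 Note: cells exposed to compound for about 90 hours before reading.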 It counts as functional, cell-based.
The target in test [4] is Delta-type opioid receptor (Homo sapiens, UniProt P41143). The test can be described thus: Late-stage results from the probe development effort to identify antagonists of OPRK1: fluorescence-based cell-based dose response OPRD1 counterscreen. It is filed as functional. (Counterscreens check selectivity or assay interference.)
The target in another test is Mu-type opioid receptor (Homo sapiens, UniProt P35372). In words: Late-stage results from the probe development effort to identify antagonists of OPRK1: luminescence-based cell-based dose response OPRM1 counterscreen. It counts as functional.
The nature of test [5]: ATP-based viability loss in HeLa cells – cell-based, CellTiter-Glo luminescence, dry powder, set 2, cytotoxicity control, dose response (AID 720593). It counts as functional. Background: Cellular ATP, detected with luciferase, serves as a proxy for viable cell number.
Test [6] can be described thus: ATP-based viability loss in HepG2 cells – cell-based, CellTiter-Glo luminescence, dry powder, set 3, cytotoxicity control, dose response (AID 720594). It counts as functional.
The next test concerns HeLa. The test can be described thus: viability loss in HeLa cells – cell-based, ATP luminescence, cherry-pick samples, cytotoxicity control, dose response (AID 687004). It is filed as functional. The note with it: Homo sapiens.
Test [7] in a line: HEK293 Cytotoxicity Assay Measured in Cell-Based System Using Plate Reader - 7071-01_Inhibitor_Dose_CherryPick_Activity_Set2. It counts as functional.
The test system of another test is HEK293. The test can be described thus: viability loss in HEK293T cells – cell-based, ATP luminescence, cherry-pick samples, cytotoxicity control, dose response (AID 687005).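 Note: cells exposed to compound for 48 hours.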 It counts as functional. The settings on record: Homo sapiens.
Test [8] is described as follows: viability loss in CEM21 cells – cell-based, plate reader, dry powder, cytotoxicity control, dose response (AID 687026). It counts as functional.
Test [9] is described as follows: inhibition of Env-driven cell fusion – HIV entry, plate reader, dry powder, dose response (AID 687023). It is filed as functional, cell-based.

Where “and” joins values, the source holds several entries; their conditions need not be identical. Equal entries are not always repeated. Calls of active or inactive are those of the source.

Mu-type opioid receptor, sequence (P35372 whole entry): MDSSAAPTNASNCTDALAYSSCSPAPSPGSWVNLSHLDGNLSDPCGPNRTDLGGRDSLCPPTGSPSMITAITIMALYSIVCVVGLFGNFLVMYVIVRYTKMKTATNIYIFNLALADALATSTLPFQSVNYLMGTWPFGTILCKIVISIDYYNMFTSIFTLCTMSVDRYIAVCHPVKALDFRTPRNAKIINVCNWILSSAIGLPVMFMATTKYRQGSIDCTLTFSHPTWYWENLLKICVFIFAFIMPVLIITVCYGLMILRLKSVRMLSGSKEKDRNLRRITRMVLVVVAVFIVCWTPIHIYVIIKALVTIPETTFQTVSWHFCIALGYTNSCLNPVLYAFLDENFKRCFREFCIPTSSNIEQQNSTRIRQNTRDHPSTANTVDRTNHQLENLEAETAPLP
Delta-type opioid receptor, sequence (P41143 whole entry): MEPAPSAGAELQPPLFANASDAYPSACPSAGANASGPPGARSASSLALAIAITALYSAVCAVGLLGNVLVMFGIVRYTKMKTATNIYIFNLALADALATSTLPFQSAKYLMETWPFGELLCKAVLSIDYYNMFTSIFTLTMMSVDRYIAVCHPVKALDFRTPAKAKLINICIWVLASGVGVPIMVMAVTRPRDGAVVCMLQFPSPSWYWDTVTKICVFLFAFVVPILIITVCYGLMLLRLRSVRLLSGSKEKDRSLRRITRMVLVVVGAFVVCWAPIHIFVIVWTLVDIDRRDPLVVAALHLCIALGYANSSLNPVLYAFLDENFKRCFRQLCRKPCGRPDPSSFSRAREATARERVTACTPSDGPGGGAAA

With `CCOC(=O)c1c(NC(=O)CSc2n[nH]c3c4ccccc4nc-3n2)sc2c1CCN(C)C2`, the half-maximal inhibitory concentration (IC50) in test [1] was 10 µM (active). Moreover, the figures for the EC50 in test [2] and in [3] were 0.161 µM (active) and > 60 µM (not active), respectively.

With `COC(=O)c1cc(I)cnc1N1CCC(NC2CCCCC2)CC1`, the values for the 50% inhibitory concentration (IC50) (in test [4]; on Mu-type opioid receptor) were 2.5 µM (active) and 0.479 µM (active), respectively.

On to `COc1ccc(-c2nnc(NC(=O)c3ccc(S(=O)(=O)N4CCC(C)CC4)cc3)o2)cc1`, for which the AC50 in test [5] and in [6] was > 52 µM (inactive) throughout.

With `Cc1cccc(-c2ccc([C@@H]3[C@H]4CN(C(=O)c5ccc6c(c5)OCO6)CCCCN4[C@H]3CO)cc2)c1`, the half-maximal activity concentration (AC50) in the test on HeLa is 20.2 µM (active); in [7], 8.23 µM (active); in the test with HEK293 it was 8.23 µM (active).

On to `O=S(=O)(NCc1ccncc1)c1ccc2c(c1)OCCO2`, for which the AC50 in test [8] is > 70 µM (inactive); in test [9], 125 nM (active) and 167 nM (active).

In general, IC50 refers to the concentration at which inhibition is half-maximal. Usually EC50 stands for the concentration needed to bring the measured effect to its halfway point. As usually defined, the AC50 is the concentration at which the activity in the assay is half-maximal.
